Patent publication EP0242855A2, “Crosslinking reaction inhibitor for collagen” (priority 1986, dated 1987)
“And” between values parts separate entries of the source, which are not always exact repeats. Equal entries are not always repeated. Where two headings read alike, the source gives them in different places.

Legend:
collagen = target: T1, collagen (Gallus gallus, UniProt P02457+P02467); assay type: biochemical, spring chicken
T1 construct: collagen obtained by grinding and deliming the bone of a spring chicken; from tissue; host or cells: bone of a spring chicken, ground and delimed (demineralised)
T1 sequence (P02467 78-1363): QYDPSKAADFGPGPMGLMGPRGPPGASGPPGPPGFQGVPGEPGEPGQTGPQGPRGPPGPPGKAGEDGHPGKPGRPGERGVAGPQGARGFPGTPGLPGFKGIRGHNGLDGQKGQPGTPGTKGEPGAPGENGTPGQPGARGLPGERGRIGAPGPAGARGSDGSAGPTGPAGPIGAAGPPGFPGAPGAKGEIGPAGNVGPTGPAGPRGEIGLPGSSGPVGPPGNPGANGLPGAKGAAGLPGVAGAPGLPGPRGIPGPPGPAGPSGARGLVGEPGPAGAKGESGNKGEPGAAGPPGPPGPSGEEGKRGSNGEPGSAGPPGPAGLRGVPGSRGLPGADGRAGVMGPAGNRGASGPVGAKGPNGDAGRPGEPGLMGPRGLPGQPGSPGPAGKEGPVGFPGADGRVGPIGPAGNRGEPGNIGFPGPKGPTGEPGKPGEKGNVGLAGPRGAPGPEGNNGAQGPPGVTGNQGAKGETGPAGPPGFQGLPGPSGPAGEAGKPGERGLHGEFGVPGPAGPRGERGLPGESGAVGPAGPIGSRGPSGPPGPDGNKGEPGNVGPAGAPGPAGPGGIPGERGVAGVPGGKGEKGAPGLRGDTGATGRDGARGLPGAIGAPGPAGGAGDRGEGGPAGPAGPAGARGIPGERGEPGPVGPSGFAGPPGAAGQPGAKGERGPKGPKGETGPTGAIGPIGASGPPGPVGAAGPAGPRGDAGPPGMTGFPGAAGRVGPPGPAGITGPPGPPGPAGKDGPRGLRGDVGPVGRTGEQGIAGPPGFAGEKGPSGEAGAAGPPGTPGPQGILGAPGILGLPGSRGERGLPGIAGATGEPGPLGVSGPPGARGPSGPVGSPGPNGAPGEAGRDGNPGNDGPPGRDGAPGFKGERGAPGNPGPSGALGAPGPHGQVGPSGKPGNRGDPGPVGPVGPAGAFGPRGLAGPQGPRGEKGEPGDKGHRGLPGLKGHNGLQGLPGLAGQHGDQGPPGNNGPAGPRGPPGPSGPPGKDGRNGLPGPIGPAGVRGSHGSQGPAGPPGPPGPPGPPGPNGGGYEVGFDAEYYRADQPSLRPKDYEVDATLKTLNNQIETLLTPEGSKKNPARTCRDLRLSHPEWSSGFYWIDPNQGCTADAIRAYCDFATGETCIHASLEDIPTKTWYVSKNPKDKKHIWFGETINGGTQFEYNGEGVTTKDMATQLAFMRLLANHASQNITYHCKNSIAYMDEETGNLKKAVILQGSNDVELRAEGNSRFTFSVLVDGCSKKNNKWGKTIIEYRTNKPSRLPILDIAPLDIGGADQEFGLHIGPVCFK
T1 sequence (P02457 152-1207): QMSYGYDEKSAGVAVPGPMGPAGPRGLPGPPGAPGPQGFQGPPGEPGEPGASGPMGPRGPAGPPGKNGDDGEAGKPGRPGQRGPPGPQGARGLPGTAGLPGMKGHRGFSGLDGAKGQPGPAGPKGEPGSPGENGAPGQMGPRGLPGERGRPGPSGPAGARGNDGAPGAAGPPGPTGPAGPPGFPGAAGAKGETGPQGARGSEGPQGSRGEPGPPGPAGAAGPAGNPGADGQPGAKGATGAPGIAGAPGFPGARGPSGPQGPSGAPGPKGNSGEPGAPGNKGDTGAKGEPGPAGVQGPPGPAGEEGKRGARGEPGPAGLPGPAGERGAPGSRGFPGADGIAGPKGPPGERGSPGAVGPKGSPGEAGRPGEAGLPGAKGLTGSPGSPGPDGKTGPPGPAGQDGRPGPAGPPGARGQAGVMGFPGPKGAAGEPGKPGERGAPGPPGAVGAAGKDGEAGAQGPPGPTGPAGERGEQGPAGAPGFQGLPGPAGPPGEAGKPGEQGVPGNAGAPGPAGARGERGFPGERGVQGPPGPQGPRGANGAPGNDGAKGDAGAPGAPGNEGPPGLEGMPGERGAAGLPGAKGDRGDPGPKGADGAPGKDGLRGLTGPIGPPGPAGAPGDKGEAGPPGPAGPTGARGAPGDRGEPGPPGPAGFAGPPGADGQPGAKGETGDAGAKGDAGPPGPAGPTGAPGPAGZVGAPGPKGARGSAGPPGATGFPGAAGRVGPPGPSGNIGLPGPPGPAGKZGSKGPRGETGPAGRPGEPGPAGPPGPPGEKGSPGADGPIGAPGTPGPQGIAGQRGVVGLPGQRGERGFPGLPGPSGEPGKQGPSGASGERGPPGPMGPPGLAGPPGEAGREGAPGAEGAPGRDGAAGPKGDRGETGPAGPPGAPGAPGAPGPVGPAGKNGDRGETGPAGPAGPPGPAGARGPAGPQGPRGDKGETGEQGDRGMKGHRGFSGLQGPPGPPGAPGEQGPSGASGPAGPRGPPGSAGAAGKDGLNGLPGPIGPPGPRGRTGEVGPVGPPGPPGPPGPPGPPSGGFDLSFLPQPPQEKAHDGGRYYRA

[1] = LD50 safety data, rat subcutaneous treatment; conditions: in vivo, sc
Source text: The silicon compound used in the present invention involves no problem with respect to safety. Shown below are data as to the safety of the silicon compounds.

[2] = silicon compound 0.01 %, collagen 100 mg, glucose 0.2 M, pH 7.4, 37 C, 4 weeks
[3] = silicon compound 0.01 %, collagen 100 mg, glucose 0.2 M, pH 7.4, 37 C, 4 weeks, solubilized by cutting with CNBr
[4] = silicon compound 0.05 %, collagen 100 mg, glucose 0.2 M, pH 7.4, 37 C, 4 weeks
[5] = silicon compound 0.05 %, collagen 100 mg, glucose 0.2 M, pH 7.4, 37 C, 4 weeks, solubilized by cutting with CNBr
[6] = silicon compound 0.1 %, collagen 100 mg, glucose 0.2 M, pH 7.4, 37 C, 4 weeks

| Structure (SMILES) | Portion A/ portion B (collagen; [2]) | Soluble collagen (%) (collagen; [3]) | Portion A/ portion B (collagen; [4]) | Soluble collagen (%) (collagen; [5]) | Portion A/ portion B (collagen; [6]) | LD50 [1] [mg/kg] | crosslinking and polymerization of collagen (collagen; addition of 0.01 to 0.1%) | Soluble collagen (%) (collagen; pH 7.4) | Portion A/ portion B (collagen; silicon compound 0.003 %, collagen 100 mg, glucose 0.2 M, pH 7.4, 37 C, 4 weeks) | Portion A/ portion B (collagen; silicon compound 0.03 %, collagen 100 mg, glucose 0.2 M, pH 7.4, 37 C, 4 weeks) | Portion A/ portion B (collagen; silicon compound 0.3 %, collagen 100 mg, glucose 0.2 M, pH 7.4, 37 C, 4 weeks) | Soluble collagen (%) (collagen; silicon compound 0.1 %, collagen 100 mg, glucose 0.2 M, pH 7.4, 37 C, 4 weeks, solubilized by cutting with CNBr) |
| --- | --- | --- | --- | --- | --- | --- | --- | --- | --- | --- | --- | --- |
| O[Si](O)(O)C1CCCCC1 [Cyclohexyl silanetriol, cyclohexyl silanetriol] | 0.42 | 68 | 0.45 | 73 |  |  |  |  |  |  |  |  |
| C[Si](O)(O)O[Si](C)(O)O [Dimer of methyl silnetriol] | 0.35 | 80 | 0.40 | 75 |  |  |  |  |  |  |  |  |
| C[Si](C)(O)O [Dimethyl silanediol, dimethyl silanediol] | 0.43 |  |  |  | 0.35 |  |  |  |  |  |  |  |
| CCCCCCCCCCCC[Si](O)(O)O [Dodecyl silanetriol, dodecyl silanetriol] | 0.45 | 68 | 0.44 | 72 |  |  |  |  |  |  |  |  |
| C[Si](O)(O)O [Methyl silanetriol, methyl silanetriol] | 0.40 |  |  |  | 0.40 | ≥ 1000 | inhibits the crosslinking and polymerization of collagen | 50% and 81% and 86% and 76% and 54% | 0.55 | 0.35 | 0.54 |  |
| O[Si](O)(O)c1ccccc1 [Phenyl silanetriol] | 0.40 | 70 | 0.41 | 72 |  |  |  |  |  |  |  |  |
| CC=C[Si](O)(O)O [Propenyl silanetriol, propenyl silanetriol] | 0.45 | 71 |  |  | 0.39 |  |  |  |  |  |  | 72 |
